Series [1] concerns the target T1, recombinant human P450-isozyme, CYP3A4 (Homo sapiens, UniProt P08684).
T1 construct: purchased Panvera Corp., Madison, Wis; host or cells: baculovirus-infected insect cells (microsomes, Baculosomes)
The series is described as follows: Activation of Compound 1.1 in vitro by recombinant CYP3A4. The series is classed as in vitro ADME. The conditions noted are these: 1 mg/ml Baculosomes, 100 μM Compound 1.1, 2 mM NADPH, 37° C. The protocol:
Activation of Compound 1.1 was evaluated in reactions containing microsomes from baculovirus-infected insect cells co-expressing recombinant human P450-isozyme, CYP3A4, and cytochrome P450 reductase (Panvera Corp., Madison, Wis.).
Methods: Reaction mixtures (0.5 ml @ 37° C.) consisted of 1 mg/ml Baculosomes, 100 μM Compound 1.1, 2 mM NADPH and 100 mM KH2PO4 buffer. Reactions were incubated for 30 minutes in an Eppendorf Thermomixer 5436 at 37° C., and reciprocal shaking speed setting 6. 100 μl aliquots were collected at 0, 10, 20 and 30 minutes and quenched with 1.5 volumes of methanol. These extracts were spun for 10 minutes at 14,000 rpm in an Eppendorf microfuge and the supernatants were lyophilized to remove the methanol. The dried supernatant pellets were resuspended in 100 μl 20 mM potassium phosphate buffer, pH 6.3, clarified by centrifugation, and analyzed by HPLC as described in Example A.

The nature of series [2]: Liver delivery of Etoposide following administration to rat. In kind it is in vivo. The procedure: At appropriate time points following drug administration, animals are lightly anesthetized with halothane. The peritoneal cavity is then opened and a blood sample is obtained from the abdominal vena cava and the liver freeze-clamped and excised.
The blood samples are heparinized and plasma is prepared. Plasma samples (100 μL) are mixed with perchloric acid or methanol, vortexed, and then clarified by centrifugation. The supernatants are analyzed for Etoposide by HPLC as described in Example A.
Livers are immediately homogenized in 3 volumes of 10% perchloric acid (w/w), and the extracts clarified by centrifugation at 2500×g (5 minutes). The resulting supernatants are removed and neutralized with 0.3 volumes of 3M KOH/3M KHCO3. The neutralized liver extracts are then spun in an Eppendorf microfuge at 10,000 rpm (20 minutes, 4° C.). The supernatants are analyzed for Etoposide as described above.

Series [3] is described as follows: Tissue homogenate activity (activation in homogenates from various tissues). The series is classed as in vitro ADME, rat. The following applies: 100 μM, 1 hour. The protocol: Compound 1.1 is tested for activation in homogenates from various tissues to assess the specificity-of liver activation.
Methods: Rats are anesthetized under halothane and tissues including liver, kidney, brain, heart, stomach, spleen, muscle, lung, and testis are excised and frozen in liquid nitrogen. Tissues are then homogenized in 1 to 3 volumes of 50 mM Tris-HCl, 154 mM KCL, 1 mM EGTA, pH 7.4. The homogenates are centrifuged at 10,000 rpm and 4° C. for 30 minutes and the supernatant recovered. Liver cytosol is prepared by centrifuging the crude liver extract for 1 hour at 40,000 rpm and […]. Reaction mixtures consist of 50 mM KH2PO4 pH 7.4, 13 mM glucose-6-phosphate, 2 mM NADP+, 10 units of glucose-6-phosphate dehydrogenase, 100 μM Compound 1.1 and tissue homogenate or liver cytosol at a protein concentration of 8.5 mg/ml. Reactions are incubated at 37° C. Aliquots are taken after 0 and 1 hour of incubation, and extracted with 60% methanol. The methanolic extracts are centrifuged at 14,000 rpm, and filtered prior to analysis by HPLC.

The subject of another series is rat hepatocytes. The series is described as follows: Activation of Compound 1.1 to Etoposide in rat hepatocytes. In kind it is in vitro ADME. The procedure:
Methods: Hepatocytes were prepared from fed Sprague-Dawley rats (250-300 g) according to the procedure of Berry and Friend (Berry, M. N., Friend, D. S. J. Cell Biol. 43, 506-520 (1969)) as modified by Groen (Groen, A. K. et al. Eur J. Biochem 122, 87-93 (1982)). Hepatocytes (75 mg wet weight/ml) were incubated in 1 ml Krebs-bicarbonate buffer containing 10 mM glucose, and 1 mg/ml BSA. Incubations were carried out in a 95% oxygen, 5% carbon dioxide atmosphere in closed, 50-ml Falcon tubes submerged in a rapidly shaking water bath (37° C.). A 10 mM stock solution of Compound 1.1 was prepared in methanol, and then diluted into the cell suspension or Krebs-bicarbonate buffer to yield a final concentration of 100 μM. […] The cell extracts in the acid layers were neutralized, and the intracellular prodrug metabolite content analyzed by reverse phase HPLC with use of a Beckman Ultrasphere ODS column (4.6×150 mm). The column was equilibrated with 20 mM potassium phosphate buffer, pH 6.3, and eluted with a gradient to 100% methanol. Detection was at 284 nm. Peaks on the chromatograms were identified by comparison to the retention times and spectra of standards of prodrug and parent compound.

Series [4] concerns parent cell line (AHH-1 TK+/−) which does not express CYP3A4. Description: Compound 1.1 activity in parent lymphoblastoid cells not expressing CYP3A4 (colony forming ability). The conditions noted are these: non-CYP3A4 expressing cells, 24 hours exposure, 14 days culture. The procedure:
Following drug exposure, cells are diluted to 10 cells/ml and cultured for 14 days to determine colony forming ability.

In series [5] the test system is human liver microsomes (CYP3A4, CYP1A2, CYP2C9). Description: Identification of the P450 isozyme involved in the activation (human microsomes with isozyme inhibitors). In kind it is in vitro ADME. The conditions noted are these: 0-100 μM inhibitor, 250 μM prodrug. The protocol: Prodrugs are evaluated for human microsome-catalyzed conversion to parent compound in the absence and presence of specific inhibitors of three major P450 isozymes: ketoconazole (CYP3A4), furafylline (CYP1A2), and sulfaphenazole (CYP2C9).
Methods: Reactions (0.5 ml @ 37° C.) consist of 0.2 M KH2PO4, 13 mM glucose-6-phosphate, 2.2 mM NADP^+, 1 unit of glucose-6-phosphate dehydrogenase, 0-2.5 mg/ml human microsomal protein (In Vitro Technologies, Inc.), 250 μM prodrug, and 0-100 μM P450 isozyme inhibitor. Reactions are stopped by addition of methanol to a concentration of 60%, filtered ([…]), and lyophilized. Samples are resuspended in HPLC buffer (10 mM phosphate pH 5.5, 2.5 mM octyl-triethyl-ammonium), loaded onto a YMC C8 HPLC column (250×4.6 mm), and eluted with a methanol gradient to 80%. Formation of parent drug is confirmed by co-elution with an authentic parent drug standard.

The next series deals with rat embryos in culture. The conditions noted are these: rat embryos in culture (Teratology 39, 31-37 (1989)); cited from earlier work.

The structures appear in SMILES notation.

Results on five compounds are retold here after patent publication US7303739B2, “Prodrugs for liver specific drug delivery” (Metabasis Therapeutics, Inc., priority 1999, dated 2007).

T1 sequence (P08684 whole entry): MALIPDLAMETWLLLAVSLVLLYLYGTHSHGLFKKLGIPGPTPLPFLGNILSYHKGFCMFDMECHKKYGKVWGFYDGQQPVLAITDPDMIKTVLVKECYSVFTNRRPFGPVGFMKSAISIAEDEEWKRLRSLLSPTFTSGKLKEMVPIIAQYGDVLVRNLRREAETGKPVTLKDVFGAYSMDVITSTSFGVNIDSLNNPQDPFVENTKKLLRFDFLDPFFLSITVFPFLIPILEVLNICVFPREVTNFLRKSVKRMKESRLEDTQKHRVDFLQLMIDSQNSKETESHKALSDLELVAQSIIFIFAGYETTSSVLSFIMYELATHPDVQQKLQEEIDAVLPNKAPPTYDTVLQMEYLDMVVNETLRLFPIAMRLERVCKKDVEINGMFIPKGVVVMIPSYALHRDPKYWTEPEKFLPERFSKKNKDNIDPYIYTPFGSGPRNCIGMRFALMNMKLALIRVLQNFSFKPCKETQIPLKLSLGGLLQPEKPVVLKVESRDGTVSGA

`COc1cc(C2c3cc4c(cc3C(OC3OC5COC(C)OC5C(O)C3O)C3COC(=O)C23)OCO4)cc(OC)c1OP1(=O)OCCC(c2ccncc2)O1` (stereo not shown) [Compound 1.1, 4′-O-(2-oxo-4-pyridyl-1,3,2-dioxaphosphorinan-2-yl)-etoposide]: the “rate of Etoposide phosphate formation” value in series [1] is on record as 386 nmoles Etoposide phosphate/nmole CYP3A4/h. Further, the liver specificity entry in series [2] (in vivo, relative to free etoposide) is given as “enhanced liver specificity”. The “area under the curve of Etoposide in liver” value in series [2] (rat, oral or intravenous, compared to administration of free Etoposide) is reported as “higher”. Also, the “levels of Etoposide in plasma” value in series [2] (rat, oral or intravenous, compared to free Etoposide) is given as “Reduced levels”. The “activation in crude rat liver homogenate” value in series [3] (8.5 mg/ml protein, 37° C.) is “depletion of the prodrug and formation of parent compound”. Moreover, the “activation in other tissue homogenates” value in series [3] (kidney, brain, heart, stomach, spleen, muscle, lung, testis) is “fails to result in appreciable activation”. Moreover, the “activation in liver cytosol” value in series [3] (liver cytosol without microsomal P450 enzymes, 37° C.) is listed as “does not result in activation”. In the series with rat hepatocytes (Krebs-bicarbonate buffer without cells, 100 μM, 37° C.), the “stability in cell-free incubations” value is given as “stable”. The “intracellular levels of Etoposide” value in the series on rat hepatocytes (rat hepatocytes, 100 μM Compound 1.1, 2-hour time point) was “approximately 40 nmoles/gram of cells”. For the same compound, in the series on rat hepatocytes (rat hepatocytes, 100 μM, 37° C.), the “activation to Etoposide phosphate and free Etoposide” value was “activated to Etoposide”. The “cytotoxicity (inhibition of cell colony formation)” value in series [4] is listed as “substantial reduction cytotoxic activity”.

As for `CC(=O)N1CCN(c2ccc(OCC3COC(Cn4ccnc4)(c4ccc(Cl)cc4Cl)O3)cc2)CC1` (stereo not shown) [Ketoconazole, ketoconazole], the “inhibition of formation of parent drug by P450 isozyme inhibitor” value (“inhibition of formation of parent drug” below) in series [5] is reported as “inhibit the formation parent drug in a dose-dependent fashion”; in series [5] (listed as ketoconozole), “inhibition of drug formation”.

Turning to `Nc1ccc(S(=O)(=O)Nc2ccnn2-c2ccccc2)cc1` [sulfaphenazole], the “inhibition of formation of parent drug” value in series [5] was “no significant inhibition”.

With `Cc1nc2c([nH]1)c(=O)n(C)c(=O)n2Cc1ccco1` [furafylline], in series [5], the “inhibition of formation of parent drug” value is “no significant inhibition”.

Consider `C=CC(=O)c1ccccc1` [Phenyl vinyl ketone], for which, in the series with rat embryos in culture, the teratogenic activity result is recorded as “lacks teratogenic activity”.
